Results on 10 compounds are retold here after patent publication US8012980B2, “Isoquinolinone derivatives” (AstraZeneca AB, priority 2008, dated 2011).

In this experiment the target is T1, human active recombinant p38 (p38α) (Homo sapiens, UniProt Q16539).
T1 construct: 6His
In words: p38 Alpha Enzyme Assay (AlphaScreen, biotinylated-ATF2 substrate). In kind it is biochemical. To be noted: means of replicate determinations; pre-incubated for 4 hours at 37° C.; SD of assay between 0.2 and 0.3 log units; read-out: p38α inhibition Mean pIC50 (converted). The method, then: The ability of the compounds of formula (I) to inhibit p38 kinase may be determined using the following biological assay:
Enzyme assays were performed in polypropylene 96 well plates. The following solutions were added to each well; 10 μL of compound dilutions in assay buffer (20 mM HEPES pH 7.4, containing 20 mM magnesium acetate, 0.005% (w/v) Tween-20, 10 mM DTT) containing 1% (v/v) DMSO or assay buffer containing 1% (v/v) DMSO alone, 70 μL of assay buffer containing 36 nM substrate (biotinylated-ATF2) and 10 μL of an appropriate dilution of human active recombinant p38-6H is tagged. Depending on batch of p38, an appropriate dilution was typically a 5 nM solution to give a final enzyme concentration of 0.5 nM. At this stage, background control wells also received 50 μL of AlphaScreen quench buffer (10 mM HEPES pH 7.4 containing 100 mM EDTA, 0.2% (w/v) bovine serum albumin). The plate was covered, pre-incubated for 4 hours at 37° C. and the enzyme reaction initiated by addition of 10 μL 1 mM ATP. After incubation for a further 45 minutes at 37° C., the reaction was stopped by addition of 50 μL quench reagent and 50 μL of the quenched reaction mixture transferred to an opaque, white 96-well plate. Detection reagent, 25 μL of 10 mM HEPES pH 7.4 containing 100 mM EDTA, 0.2% (w/v) bovine serum albumin, 0.3 nM anti phosphoATF2 antibody and 25 μg/mL of AlphaScreen protein A acceptor and donor beads' (PerkinElmer Inc.), was added to all wells in a darkened room, the plate sealed and left in the dark for at least 5 hours before AlphaScreen readings were taken using a Perkin Elmer EnVision reader. Total, uninhibited activity was determined from assays performed in each assay plate. The mean control in the absence of p38 activity was subtracted from each well. Data were expressed as percent inhibition of total activity using equation 1. Percent Inhibition=100*(1−Test/Control) Eq.1 Where . . . Test=p38 kinase activity in the presence of compound Control=p38 kinase activity in the absence of compound.
pIC50 is defined as the logarithm of the reciprocal of the concentration of compound required for 50% reduction in total p38 kinase activity.
The standard deviation of the p38 enzyme inhibition assay is between 0.2 and 0.3 log units.
Background: Bead proximity is the source of the signal in Alpha formats.

T1 sequence (Q16539 whole entry): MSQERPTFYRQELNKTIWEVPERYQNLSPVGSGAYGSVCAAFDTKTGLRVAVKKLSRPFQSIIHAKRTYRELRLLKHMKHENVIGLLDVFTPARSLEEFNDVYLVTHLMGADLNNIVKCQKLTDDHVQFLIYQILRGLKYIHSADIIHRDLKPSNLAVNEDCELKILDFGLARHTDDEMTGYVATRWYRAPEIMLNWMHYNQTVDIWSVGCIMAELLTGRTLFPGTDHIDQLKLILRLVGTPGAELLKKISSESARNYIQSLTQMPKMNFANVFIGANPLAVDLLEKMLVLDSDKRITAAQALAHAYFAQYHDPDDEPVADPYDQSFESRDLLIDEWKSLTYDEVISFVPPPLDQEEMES

Regarding `Cc1c(F)cc(C(=O)NC2CC2)cc1-c1ccc2c(=O)n(CC3CC3)cc(S(=O)(=O)N3CCNCC3)c2c1` [Example 47, N-Cyclopropyl-3-[2-(cyclopropylmethyl)-1-oxo-4-(piperazin-1-ylsulfonyl)-1,2-dihydroisoquinolin-6-yl]-5-fluoro-4-methylbenzamide], the IC50 is 0.251 nM.

On to `Cc1c(F)cc(C(=O)NC2CC2)cc1-c1ccc2c(=O)n(CC(C)(C)CO)cc(C(C)N3CCNCC3)c2c1` (racemic) [Example 38, N-Cyclopropyl-3-fluoro-5-[2-(3-hydroxy-2,2-dimethylpropyl)-1-oxo-4-(1-piperazin-1-ylethyl)-1,2-dihydroisoquinolin-6-yl]-4-methylbenzamide racemate], for which the IC50 is 0.2 nM.

As for `Cc1c(F)cc(C(=O)NC2CC2)cc1-c1ccc2c(=O)n(CC(C)(C)CO)cc(C(C)N3CCNCC3)c2c1` (single isomer, unassigned) [Example 39, N-Cyclopropyl-3-fluoro-5-[2-(3-hydroxy-2,2-dimethylpropyl)-1-oxo-4-(1-piperazin-1-ylethyl)-1,2-dihydroisoquinolin-6-yl]-4-methylbenzamide], the IC50 was 0.631 nM.

On to `Cc1c(F)cc(C(=O)NC2CC2)cc1-c1ccc2c(=O)n(CCO)cc(CN3CCCN(C)CC3)c2c1` [Example 7, N-Cyclopropyl-3-fluoro-5-(2-(2-hydroxyethyl)-4-((4-methyl-1,4-diazepan-1-yl)methyl)-1-oxo-1,2-dihydroisoquinolin-6-yl)-4-methylbenzamide], for which the IC50 is 0.501 nM.

With `Cc1c(F)cc(C(=O)NC2CC2)cc1-c1ccc2c(=O)n(C[C@@H](C)CO)cc(CN3CCNCC3)c2c1` [Example 20, N-Cyclopropyl-3-fluoro-5-{2-[(2R)-3-hydroxy-2-methylpropyl]-1-oxo-4-(piperazin-1-ylmethyl)-1,2-dihydroisoquinolin-6-yl}-4-methylbenzamide], the IC50 is 0.794 nM.

`Cc1c(F)cc(C(=O)NC2CC2)cc1-c1ccc2c(=O)n(CC3(CO)CC3)cc(CN3CCN[C@@H](C)C3)c2c1` [Example 34, N-Cyclopropyl-3-fluoro-5-(2-{[1-(hydroxymethyl)cyclopropyl]methyl}-4-{[(3S)-3-methylpiperazin-1-yl]methyl}-1-oxo-1,2-dihydroisoquinolin-6-yl)-4-methylbenzamide]: the IC50 was 1 nM.

Take `Cc1c(F)cc(C(=O)NC2CC2)cc1-c1ccc2c(=O)n(CC(C)(C)CO)cc(CN3CCN[C@@H](CO)C3)c2c1` [Example 11, N-Cyclopropyl-3-fluoro-5-(2-(3-hydroxy-2,2-dimethylpropyl)-4-(((3R)-3-(hydroxymethyl)piperazin-1-yl)methyl)-1-oxo-1,2-dihydroisoquinolin-6-yl)-4-methylbenzamide]: the IC50 was 0.158 nM.

Consider `Cc1c(F)cc(C(=O)NC2CC2)cc1-c1ccc2c(=O)n(CC[C@H](C)O)cc(CN3CCNCC3)c2c1` [Example 9, N-Cyclopropyl-3-fluoro-5-{2-[(3S)-3-hydroxybutyl]-1-oxo-4-(piperazin-1-ylmethyl)-1,2-dihydroisoquinolin-6-yl}-4-methylbenzamide], for which the IC50 is 1.58 nM.

For the compound `Cc1c(F)cc(C(=O)NC2CC2)cc1-c1ccc2c(=O)n(CC(C)(C)CO)cc(C(C)N3CCCNCC3)c2c1` (stereo not shown) [Example 43, N-Cyclopropyl-3-{4-[1-(1,4-diazepan-1-yl)ethyl]-2-(3-hydroxy-2,2-dimethylpropyl)-1-oxo-1,2-dihydroisoquinolin-6-yl}-5-fluoro-4-methylbenzamide], the IC50 is 0.501 nM.

As to `Cc1c(F)cc(C(=O)NC2CC2)cc1-c1ccc2c(=O)n(CC(C)(C)CO)cc(CN3CCCN(C)CC3)c2c1` [Example 2, N-Cyclopropyl-3-fluoro-5-{2-(3-hydroxy-2,2-dimethylpropyl)-4-[(4-methyl-1,4-diazepan-1-yl)methyl]-1-oxo-1,2-dihydroisoquinolin-6-yl}-4-methylbenzamide], the IC50 is 0.251 nM.
